Reference: PMC5642494 (Oncotarget, 2017)

How the values were obtained:
MCF7 cells = experiment: Multiplexed cell number, β-gal and TUNEL in MCF7; type: cell-based, human; details: 0.125 µM or 0.5 µM, 1-5 DT
Experimental: The viable cell number was determined by PI staining, the % of β-gal positive cells was determined using an antibody to β-gal, and the % of Tunel positive cells was determined by the incorporation of labelled dUTP. The data are plotted as the mean (+/- SD) of 2 experiments for CDK4 and CDK6 inhibitor treatment, and the mean of 6 experiments (+/- SD) for untreated samples. The duration of treatment is plotted along the x-axis in doubling times (DT) for MCF7 cells.
After treatment, cells were fixed, washed with PBS, permeabilized and β-gal was detected using anti-β-galactosidase antibody; for multiplexed assays, TUNEL staining was carried out using Roche TUNEL reagents as indicated above. Nuclei were also stained with PI for total cell counting. Plates were read in an Acumen Explorer Ex3 (TTP Labtech) and raw data were analyzed with Cellista software. Outputs were expressed as percentages of each identified subpopulation 1) positive β-gal, and 2) total cell number. The percentages of β-gal positive cells, TUNEL positive cells, and cell numbers were plotted in Microsoft Excel.

[1] = test system: HR+ and HR- breast cancer cell lines; experiment: Proliferation after washouts (EdU Click-iT) in breast cancer lines; type: cell-based, human; details: HR+ versus HR- breast cancer cell lines; exposure 2 hr, 24 hr or 72 hrs followed by washout
Experimental: Images were SA-β-galactosidase immunocytochemical labeling taken by fluorescent microscopy using a Leica DMiL. […] SA-β-gal Cell samples were lysed after treatment with expression was determined using the Senescence Cells 100 μL lysis buffer and transferred to a 96-well plate. Histochemical Staining Kit (Sigma, CS0030) following 30 μL of each sample were transferred into deep well the vendor 's manual. Images were taken at 100x by bright plates using TECAN-EVO Workstation. Samples were field microscopy (Leica DMiL). treated for derivatization of the metabolites of interest and internal standards. For this, 50 μL of derivatization reagent Proliferation studies after washouts (EdU Click- and 80 μL of internal standard (IS, SupplementaryTable iT®) 1), were added with multidrop, plates were vortexed for 5 mins and let sit for one hour at 4 °C. The IS used were the Cells were plated onto poly-D-lysine D or 13C-labeled commercial analogues of nine of the ten coated 96-well plates at a density of 2,000-6,000 metabolites, prepared at 25 μM in water (Supplementary viable cells per well, and treated with abemaciblib or Table 1). The derivatization reagents (from Sigma), […] washout schedule shown on Supplementary Figure 1A. […] EdU Samples were analyzed by LC-MS/MS under the detection was performed using the Click-iT High Content conditions described below. […] Cell images were captured using a Cellomics Arrayscan VTI and analyzed Analysis of the derivatized-extracted samples with the Target Activation bio-application V.3 reading in 4 was carried out with an Agilent 6460 Triple Quadrupole channels at a magnification of 10X. […] The software relative levels and sub-cellular localization of EdU were for data collection and treatment was Agilent Masshunter determined through the respective intensities and locations Workstation. Mobile phases for chromatography were: of Alexa-488 fluorescence. mobile phase A: formic acid (5 mM) and ammonium formate (10 mM) in water; mobile phase B: acetonitrile. […]

| Compound | TUNEL staining (MCF7 cells) | percentage of cells with β-gal staining compared with abemaciclib (MCF7 cells) | DNA synthesis / proliferation as measured by EdU incorporation [1] |
| --- | --- | --- | --- |
| CC(=O)c1c(C)c2cnc(Nc3ccc(N4CCNCC4)cn3)nc2n(C2CCCC2)c1=O [palbociclib] | only minor increases in TUNEL staining were observed and only after longer treatment times | lower | decrease in proliferation preferentially for HR+ cell lines; however, this effect was only observed after longer treatment times |
| CN(C)C(=O)c1cc2cnc(Nc3ccc(N4CCNCC4)cn3)nc2n1C1CCCC1 [ribociclib] | only minor increases in TUNEL staining were observed and only after longer treatment times | lower |  |
